Read-outs that look alike come from different tables or passages of the source.
Columns and labels:
Type in all cases: cell-based, Candida tropicalis
ΔΔXyl2 [1] = conditions: WSH; for starting xylose converted by ΔΔXyl2 with co-substrate: maltose value by 72 hr
ΔΔXyl2 [2] = conditions: YNB media; for starting xylose attenuated/bioconverted by ΔΔXyl2 with co-substrate: binary mixture of xylose and co-substrate
Y6604 (NCYC 4190) = experiment: Xylose utilisation of Y6604 in the presence of increased inhibitor concentrations; conditions: high or increasing inhibitor concentrations, minimal media, shake flasks
Method: FIG. 4 show graphs illustrating xylose utilisation profiles of Y6604 (NCYC 4190) in the presence of increased inhibitor concentrations. Graphs A, B, C, D, E and F represent strain performance in the presence of increasing concentrations of vanillin (VAN), transcinnamic acid (TRANSC), hydroxyl-benzaldehyde (HBA), syringaldehyde (S), furfural (F) and hydroxyl-methyl furfural (HMF) respectively. Indicated values in the legend represent concentrations in mg/100 mL. Xylose values are the mean of two replicates in minimal media in shake flasks;
Strain Y6604 (NCYC 4190) was compared with other xylose-utilizing isolates from the gut of click beetle to assess its inhibitor tolerance and xylose to xylitol conversion. […] Despite slower Y6604 (NCYC 4190) growth in corn stover hydrolysate, xylose consumption and subsequent xylitol production was largely unaffected when compared to other isolates (FIG. 2 A, B) and increased amounts of the sugar alcohol at a comparatively higher rate of production were apparent in hydrolysates obtained from Miscanthus (FIG. 2 C, D) and wheat straw (FIG. 2 E, F). Phylogenetic analysis of the D1/D2 domain confirmed strain identity to be Candida tropiclis (FIG. 3). Having observed the enhanced efficacy of Y6604 (NCYC 4190) in hydrolysates with high inhibitor loadings, the isolate's tolerance threshold to common inhibitors by measuring xylose uptake rates (FIG. 4) was then assessed.

Compound | starting xylose converted by ΔΔXyl2 with co-substrate (ΔΔXyl2 [1]) | rate of xylose conversion by ΔΔXyl2 with co-substrate (ΔΔXyl2 [2]) | starting xylose attenuated/bioconverted by ΔΔXyl2 with co-substrate (ΔΔXyl2 [2]) | effect on xylose utilisation/uptake (Y6604 (NCYC 4190)) | also measured
OC[C@H]1O[C@H](O[C@H]2[C@H](O)[C@@H](O)C(O)O[C@@H]2CO)[C@H](O)[C@@H](O)[C@@H]1O (mixture of isomers) [maltose] | more than 95% | 0.5 g xylose per hr | 70% | – | rate of xylose conversion by ΔΔXyl2 with co-substrate (ΔΔXyl2 [1]): 0.78 g/h
O=Cc1ccc(CO)o1 [HMF, hydroxyl-methyl furfural] | – | – | – | enhance pentose uptake | –
O=C(CO)[C@@H](O)[C@H](O)[C@H](O)CO [fructose] | – | around 0.4 g xylose per hr | 54% | – | –
O=Cc1ccco1 [furfural] | – | – | – | completely abolished xylose uptake | –
O=C[C@H](O)[C@@H](O)[C@@H](O)[C@H](O)CO [galactose] | more than 90% | – | 34% | – | rate of xylose conversion by ΔΔXyl2 with co-substrate (ΔΔXyl2 [1]): 0.5 g/h; time to complete co-substrate exhaustion (ΔΔXyl2 [1]): ≤ 7 h; arabitol accumulation with co-substrate (ΔΔXyl2 [1]; compared to other potential co-substrates (FIG. 7G)): high amount of arabitol accumulation
OCC(O)CO [glycerol] | around 94% | around 0.4 g xylose per hr | – | – | –
COc1cc(C=O)cc(OC)c1O [syringaldehyde] | – | – | – | delayed xylose utilisation | –
O=C(O)/C=C/c1ccccc1 [transcinnamic acid] | – | – | – | delayed xylose utilisation | –
COc1cc(C=O)ccc1O [vanillin] | – | – | – | delayed xylose utilisation | –
hydroxyl-benzaldehyde | – | – | – | delayed xylose utilisation | –

Source: US11535872B2, “Microbial strains and uses thereof” (priority 2017, dated 2022)
